We go through 2 compounds from paper PMC3014912 (Journal of molecular modeling, 2010).

The IC50 is the midpoint of a concentration-inhibition curve. Low readings indicate greater potency in that assay, high ones weaker potency in that assay.

For the test, the target named is T1, human carboxylesterase 1 (hCE1) (Homo sapiens, UniProt P23141).
T1 sequence (P23141 18-567): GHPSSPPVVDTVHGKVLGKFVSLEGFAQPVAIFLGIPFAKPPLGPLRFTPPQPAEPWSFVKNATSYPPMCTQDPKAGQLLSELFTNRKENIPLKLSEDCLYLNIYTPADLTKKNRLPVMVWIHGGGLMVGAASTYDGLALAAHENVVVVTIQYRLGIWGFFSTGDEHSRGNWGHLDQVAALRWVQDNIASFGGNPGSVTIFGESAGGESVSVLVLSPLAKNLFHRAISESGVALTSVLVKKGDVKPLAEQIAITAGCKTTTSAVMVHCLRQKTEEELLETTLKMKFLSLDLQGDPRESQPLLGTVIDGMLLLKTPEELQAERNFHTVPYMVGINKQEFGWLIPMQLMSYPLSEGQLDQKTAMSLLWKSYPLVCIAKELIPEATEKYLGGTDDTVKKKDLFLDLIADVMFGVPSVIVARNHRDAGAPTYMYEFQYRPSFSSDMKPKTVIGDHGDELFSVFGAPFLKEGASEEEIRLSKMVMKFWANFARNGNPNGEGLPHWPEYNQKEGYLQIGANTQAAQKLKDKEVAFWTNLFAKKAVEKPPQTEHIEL
Nature of the test: hCE1 inhibition, p-nitrophenyl acetate hydrolysis. It counts as biochemical.

The compound `CCCCCCCCOCC(=O)C(F)(F)F` [Compound 4, 1,1,1-trifluoro-3-octyloxypropan-2-one] gave an IC50 of 0.02 µM.
Under `CCCCCCCCCCC(C)=O` [Compound 9, 2-dodecanone, reference compound] stands > 1000 µM.
